Results: ChEMBL document CHEMBL5120889, “Dolabrane-Type Diterpenoids with Immunosuppressive Activity from Koilodepas hainanense” (J Nat Prod, 2022)

Columns and labels:
[1] = tested on: B-cell line; test: Immunosuppressive activity in BALB/c mouse splenocytes assessed as reduction in LPS-induced mouse B-lymphocytes proliferation incubated for 8 hrs by beta scintillation counting based [3H]thymidine incorporation assay; format: functional
[2] = Immunosuppressive activity in BALB/c mouse splenocytes assessed as reduction in ConA-induced mouse T-lymphocytes proliferation incubated for 8 hrs by beta scintillation counting based [3H]thymidine incorporation assay; format: functional; conditions: T-cell
[3] = Selectivity index, ratio of CC50 for cytotoxicity in BALB/c mouse splenocytes to IC50 for immunosuppressive activity in BALB/c mouse splenocytes assessed as reduction in ConA-induced mouse T-lymphocytes proliferation; format: toxicity, cell-based; conditions: read-out: Ratio CC50/IC50
[4] = Cytotoxicity in BALB/c mouse Splenocyte assessed as reduction in cell viability incubated for 48 hrs by MTT assay; format: toxicity, cell-based; conditions: splenocytes
[5] = Selectivity index, ratio of CC50 for cytotoxicity in BALB/c mouse splenocytes to IC50 for immunosuppressive activity in BALB/c mouse splenocytes assessed as reduction in LPS-induced mouse B-lymphocytes proliferation; format: toxicity, cell-based; conditions: read-out: Ratio CC50/IC50

## C/C=C/C[C@@H](C)[C@@H](O)[C@H]1C(=O)N[C@@H](CC)C(=O)N(C)CC(=O)N(C)[C@@H](CC(C)C)C(=O)N[C@@H](C(C)C)C(=O)N(C)[C@@H](CC(C)C)C(=O)N[C@@H](C)C(=O)N[C@H](C)C(=O)N(C)[C@@H](CC(C)C)C(=O)N(C)[C@@H](CC(C)C)C(=O)N(C)[C@@H](C(C)C)C(=O)N1C [CYCLOSPORINE]
[1]
  IC50: 0.74 µM

## C[C@@H]1C(=O)CC[C@@H]2[C@@]3(C)CC[C@](C)([C@@H](O)CO)C[C@@H]3CC[C@]21C
[2]
  IC50: 23.9 µM
[1]; read-out: IC50
  IC50: 10.2 µM
[3]
  selectivity ratio: 1
[4]
  CC50 at 48 h: 24.2 µM
[5]
  selectivity ratio: 2.4

## CC1=C(O)C(=O)C[C@@H]2[C@@]3(C)CC[C@](C)(C(=O)O)C[C@@H]3CC[C@]12C
[2]
  IC50: 3.41 µM
[1]; read-out: IC50
  IC50: 3.05 µM
[3]
  selectivity ratio: 1.9
[4]
  CC50 at 48 h: 6.46 µM
[5]
  selectivity ratio: 2.1

## CC1=CC(=O)C[C@@H]2[C@@]3(C)CC[C@](C)(O)C[C@@H]3CC[C@@]12C
[2]
  IC50: 3.11 µM
[1]; read-out: IC50
  IC50: 2.24 µM
[3]
  selectivity ratio: 4.2
[4]
  CC50 at 48 h: 13.2 µM
[5]
  selectivity ratio: 5.9
